From patent US11813268B2, “Mitofusin activators and uses thereof” (Albert Einstein College of Medicine, priority 2017, dated 2023)

Assays:
WT MEFs [1] = experiment: cells
Description: Next, it was visually examined if MASM7 could induce mitochondrial fusion in MEFs, using mitochondrial aspect ratio (mitochondrial length/width, reflecting fusion) as a readout. […] (FIG. 5).

MEFs [2] = experiment: Cell viability assay (CellTiter-Glo) in MEFs; format: cell-based; settings: 24 h
Experimental: Cells (5×10^3 cells/well) were seeded in a 96-well white plate and treated with serial dilutions of MASM7 or vehicle (0.1% DMSO). Cell viability was assayed after 24 h by addition of CellTiter-Glo reagent according to the manufacturer's protocol (Promega). Luminescence was measured using a F200 PRO microplate reader (TECAN). Viability assays were performed in at least triplicate and the data normalized to vehicle-treated control wells. Dilutions of MASM7 were performed using a TECAN D300e Digital Dispenser from 10 mM stocks.

MEFs [3] = experiment: Caspase-3/7 activation assay in MEFs; format: cell-based; settings: 5 μM, 24 h
Experimental: Cells (5×10^3 cells/well) were seeded in a 96-well white plate and treated with MASM7 (5 μM), doxorubicin (1 μM) or vehicle (0.05% DMSO). Caspase 3/7 activation was measured after 24 h by addition of the Caspase-Glo 3/7 chemiluminescence reagent according to the manufacturer's protocol (Promega). Luminescence was detected by a […] microplate reader (TECAN).

MEFs [4] = experiment: TMRE mitochondrial membrane potential assay in MEFs; format: cell-based; settings: 5 μM, 24 h
Experimental: Carbonyl cyanide 3-chlorophenylhydrazone (CCP) was used as a positive control (20 μM, 40 min). Following treatments, cells were stained with 400 nM TMRE (Sigma Cat. 87917) for 20 min at 37° C. Subsequently, cells were washed with once with PBS. Fluorescence intensity was detected by a M100 microplate reader (TECAN, Ex: 540 nm/Em: 579 nm).

MEFs [5] = experiment: Staurosporine-induced apoptosis (active caspase 3) in MEFs; format: cell-based; settings: co-treated with staurosporine (STS)
Experimental: Transfected HEK 293T or MEFs were washed with once PBS and fixed with 2% PFA for 13 min. Subsequently, cells were blocked, then incubated for 1 h at room temperature with the primary antibody for ATP5B (Abcam; ab128743) or active caspase 3 (R&D Systems; AF835). After incubation with the primary antibody, cells were washed with PBS and incubated for 1 h at room temperature with the secondary antibody (ThermoFisher Scientific; A11010). […] Data were analyzed with Image J software.
Consistent with previous reports showing that inhibition of fission reduced apoptosis (8,12-14), the effect of MASM7 was evaluated upon a classic apoptotic stimulus such as staurosporine (STS) in MEFs.

cancer cells = experiment: Toxicity in cancer cells; settings: 15 μM, 72 h
Description: (§1) TMRE staining was used as readout. […] CellROX was used to evaluate ROS levels.

lymphoma cells = experiment: Viability of lymphoma cells
Description: as §1

Farage cells [6] = experiment: Caspase 3 activation in Farage cells
Description: as §1

Farage cells [7] = experiment: ROS levels (CellROX) in Farage cells
Description: as §1

WT MEFs [8] = experiment: Mitochondrial respiration (Seahorse OCR) in WT MEFs; settings: 1 μM, 2 h
Farage cells [9] = experiment: TMRE mitochondrial membrane potential in Farage cells
Description: as §1

MFN1/MFN2 DKO MEFs = settings: 1 μM, 2 h
Experimental: Mitochondrial respiration. Mitochondrial oxygen consumption rates (OCR) were assessed using a XF24 Analyzer (Seahorse Biosciences, Billerica Mass., USA). […] OCR was normalized to cell number or total protein content per well for each condition tested. […] Data are expressed as Mean±SEM, OCR from untreated control for each condition; using n=3-5 individual experiments with n=3-5 replicates for each group tested.

[10] = test system: MFN1/MFN2 DKO MEFs reconstituted with WT, L727A and D725A/L727A MFN2; settings: L727A and D725A/L727A MFN2 vs WT
Experimental: Evaluation of mitochondrial morphology using mitochondrial aspect ratio (Mito AR; length/width) as a readout. […] Mitotracker green stains mitochondria. Scale bar 20 μm. […] Quantification of Mito AR in MFN1/MFN2 DKO MEFs reconstituted with WT, L727A and D725A/L727A MFN2.
Live cell imaging. […] Images were taken with Leica SP5 inverted confocal microscope. Data were analyzed with Image J software. >200 mitochondria were measured per condition in mitochondrial aspect ratio.

## CC(Sc1nnc(C2CC2)n1-c1ccccc1)C(=O)Nc1sc2c(c1C(N)=O)CCC2 (stereo not drawn) [MASM7]
WT MEFs [1]; 1 μM, 2 h
  Mitochondrial aspect ratio in WT MEFs: increased mitochondrial aspect ratio
WT MEFs [1]; read-out: EC50 for inducing fusion (Mito AR)
  EC50: 0.075 µM
MEFs [2]
  Viability of MEFs: did not reduce viability
MEFs [3]
  Caspase 3/7 activation in MEFs: did not induce caspase 3/7 activation
MEFs [4]
  Mitochondrial membrane potential in MEFs (TMRE): did not reduce viability or mitochondrial membrane potential
MEFs [5]
  Population of MEFs positive to caspase 3 activation: reduced significantly
Cancer cells
  Toxicity in the indicated cancer cells: low to moderate toxicity
Lymphoma cells
  Viability of lymphoma cells: reduces viability selectively in lymphoma cells
Farage cells [6]
  Caspase 3 activation in Farage cells: promotes caspase 3 activation in a dose and time dependent manner
Farage cells [7]
  ROS levels in Farage cells (CellROX): increases ROS levels
WT MEFs [8]
  ATP production, WT MEFs: increases ATP production
  Basal and maximal oxygen consumption rate (OCR), WT MEFs: increases basal and maximal oxygen consumption rate (OCR)
Farage cells [9]
  Mitochondrial membrane potential in Farage cells (TMRE): reduces mitochondrial membrane potential in a dose and time dependent manner
MFN1/MFN2 DKO MEFs
  Basal and maximal OCR, MFN1/MFN2 DKO MEFs: does not increase basal and maximal OCR
[10]
  MASM7-induced fusion (Mito AR) with HR2 domain mutations of Mfn2: inhibits MASM7-induced fusion
